Experimental data taken from patent EP4111863A1, “PHOSPHORUS USE EFFICIENCY ENHANCERS AS PLANT GROWTH PROMOTORS” (EuroChem Antwerpen, priority 2021, dated 2023).

Test system: SPX1
Assay: Chemical activity assessment: SPX1 phosphate starvation biomarker, pSPX1::GUS reporter line, GUS stained area
Type: in vivo, Arabidopsis thaliana
Details: Table 3; 50 µM compound, low phosphate modMS liquid medium, 7 days after germination; low phosphate control average of the same plate
Description: All Arabidopsis plant experiments were performed using the Arabidopsis thaliana Columbia-0 background. The Arabidopsis pSPX1::GUS line is described in the […] 2008, 54: 965-975. For rice, the cultivar Nipponbare was used. For maize, the cultivars DKC 2931 and B104 were used for regular pot experiments and sand-based pot experiments, respectively. For soybean, the cultivar Primus was used. […] The medium was solidified due to the addition of 0,6% Gelrite, unless stated otherwise. In case of vertical plates (root length and root hair measurements), the medium was supplied with 0.5% of sucrose and 1 µM (low phosphate, 1 µM KH2PO4, 9.9 mM KCI), 10 µM (low phosphate 10 µM KH2PO4, 9.9 mM KCI) or 1.25 mM KH2PO4 (high phosphate). Arabidopsis seeds were stratified for 2 days at 4 °C before germination. Seedlings were germinated in climate-controlled growth chambers at 22 °C under continuous light (100 µmol m^-2 s^-1). Husked rice seeds were germinated on wetted Whatman paper for 2 days at 37 °C and then transferred to Sterivent boxes or square Petri dishes with solid medium. Maize and soybean seeds were wetted 24 hours at room temperature prior to sowing in pots.
For the chemical activity assessment 3 to 8 seeds per well of Arabidopsis pSPX1::GUS line were sown in 96-well plates containing 150 µl of low phosphate modMS liquid medium containing 1% of sucrose. Compounds were added in 50 µM concentration, starting from a 5 mM stock of compounds solved in DMSO. Different chemical substances were separately added to different wells. Per plate, 16 control wells were used, 8 containing only the low phosphate medium and 1% DMSO, and 8 containing high phosphate medium and 1% DMSO. 7 days after germination, plates were scanned using a flatbed scanner (EPSON Expression 11000XL) and analyzed for leaf size. After scanning, the growth medium was replaced by GUS staining solution (see Plant Mol. Biol. Rep. 1994, 12: 37-42 for details) and incubated for 1.5 hours at 37 °C. The plates were scanned a second time and analyzed for GUS signal area. Measurements of both leaf area and GUS signal area were conducted by filtering out and measure the green and blue signal, respectively using ImageJ software. If the green leaf area was 50% or less than the control, samples were omitted. Additionally, all results were visually screened for leaf size and GUS signal.

| Structure (SMILES) | GUS (SPX1) stained area normalized to the number of seeds (pixels) |
| --- | --- |
| CC(c1nc(C(C)(C)C)no1)N1CCOC(c2ccccc2)C1 (stereo not drawn) | 9 pixels |
| CC1CN(C(=O)C2(c3ccc(F)cc3)CC2)CC1N1CCOCC1 (stereo not drawn) | 53 pixels |
| CCc1ccnc(C(=O)Nc2cnccc2N2CCOCC2)c1 | 27 pixels |
| O=C(CSc1ccc(F)cc1)Nc1ccc(Cl)c(S(=O)(=O)N2CCOCC2)c1 | 5 pixels |
| COc1ccc(-c2[nH]c3ccccc3c2CCC(=O)N2CCOCC2)cc1 | 3 pixels |
| c1cc2c(cc1C1CCCN1c1nc(CN3CCOCC3)nc3sc4c(c13)CCC4)OCCO2 (stereo not drawn) | 1 pixels |
| CCCCn1c(N)c(C(=O)NCCN2CCOCC2)c2nc3ccccc3nc21 | 20 pixels |
| CC(C)CCNC(=O)c1cc(S(=O)(=O)N2CCOCC2)cn1C | 1 pixels |
| CC1CN(Cc2csc(NC(=O)c3ccco3)n2)CC(C)O1 (stereo not drawn) | 2 pixels |
| CC(C)C(NC(=O)C12CC3CC(CC(C3)C1)C2)C(=O)N1CCOCC1 (stereo not drawn) | 14 pixels |
| O=C(COc1cc(Cl)ccc1Cl)NCc1ccc(N2CCOCC2)nc1 | 3 pixels |
| C(=C\c1cc2ccccc2nc1N1CCOCC1)/c1nc2ccccc2s1 | 0 pixels |
| CCC1CN(C(=O)C(C)OCC2CC2)CC1N1CCOCC1 (stereo not drawn) | 62 pixels |
| Cc1ccc(C2CN(Cc3cc(-c4ccco4)on3)CCO2)c(C)c1 (stereo not drawn) | 15 pixels |
| CCn1c(Sc2nnnn2-c2ccccc2)nc2cc(S(=O)(=O)N3CCOCC3)ccc21 | 14 pixels |
| O=S(=O)(c1ccc(Sc2nnc(-c3ccccc3)c3ccccc23)nc1)N1CCOCC1 | 31 pixels |
| Brc1cc(CN2CCOC(Cn3cccn3)C2)cs1 (stereo not drawn) | 21 pixels |
| CCC(CC)C(CNC(=O)Nc1ccccc1F)N1CCOCC1 (stereo not drawn) | 37 pixels |
| CC(C)(C)CC(C)(C)NCc1cnc(N2CCOCC2)nc1 | 5 pixels |
| CC1CN(C(=O)c2cc(Cl)c(Cl)n2C)CCO1 (stereo not drawn) | 14 pixels |
| CC1CN(C(=O)Nc2cc(C(C)C)on2)CC(c2ccsc2)O1 (stereo not drawn) | 23 pixels |
| c1coc(CNc2nc(N3CCOCC3)nc3ccccc23)c1 | 2 pixels |
| O=C(NCc1ccccc1CS(=O)(=O)N1CCOCC1)c1ccc([N+](=O)[O-])cc1 | 7 pixels |
| Cc1csc(C2CN(Cc3nc(-c4ccccc4)no3)CCO2)n1 (stereo not drawn) | 0 pixels |
| CCC(CC)C(CNC(=O)c1cc(C)nc2onc(C)c12)N1CCOCC1 (stereo not drawn) | 7 pixels |

| Structure (SMILES) | GUS (SPX1) stained area normalized to the number of seeds (pixels) |
| --- | --- |
| O=C(C1CSCN1C(=O)CC1=CCCCC1)N1CCOCC1 (stereo not drawn) | 162 pixels |
| Cc1cc(I)ccc1NC(=O)CN1CCOC(C)C1 (stereo not drawn) | 17 pixels |
| COC(=O)C1CN(c2ccc(C(F)(F)F)cn2)C[C@@H](C)O1 (stereo partly drawn) | 1 pixels |
| CCC(=O)c1ccc(OC(=O)N2CCOCC2)cc1 | 0 pixels |
| COc1cc(C(C)=O)ccc1OC(=O)N1CCOCC1 | 8 pixels |
| NC(=O)C1CN(c2ncc(Br)cn2)CCO1 (stereo not drawn) | 17 pixels |
| OC(COc1cccc2ccccc12)CN1CCOC2CCCCC21 (stereo not drawn) | 34 pixels |
| CC1CN(C(=O)c2cnn(C)c2C(F)(F)F)CC(C)O1 (stereo not drawn) | 19 pixels |
| Cc1csc(C2COCCN2C(=O)NC2CCc3ccccc32)n1 (stereo not drawn) | 12 pixels |
| COc1cccc(C(c2c(-c3ccccc3)n(O)c3ccccc23)N2CCOCC2)c1 (stereo not drawn) | 54 pixels |
| Brc1ccc(CN2CCOC(Cn3cccn3)C2)s1 (stereo not drawn) | 10 pixels |
| CC1(C)CN(C(=O)c2csc(-c3ccsc3)n2)CCO1 | 31 pixels |
| Cc1ccc(C(C)C)c(OCCNCCN2CCOCC2)c1 | 40 pixels |
| O=C(C1=C(O)C(=O)N(CCN2CCOCC2)C1c1ccccc1)c1cccs1 (stereo not drawn) | 5 pixels |
| Clc1cnccc1N1CCC(OCCN2CCOCC2)CC1 | 491 pixels |
| CC1(C)CN(C(=O)c2csc(-c3cccs3)n2)CCO1 | 6 pixels |
| Fc1ccc(C2CN(Cc3nnsc3Cl)CCO2)cc1 (stereo not drawn) | 3 pixels |
| CN(CC1COc2ccccc2O1)c1ccc(S(=O)(=O)N2CCOCC2)cn1 (stereo not drawn) | 0 pixels |
| O=S(=O)(N1CCOCC1)N1CCN(Cc2noc(-c3ccc(F)cc3)n2)CC1 | 19 pixels |
| Cn1cc(C2CN(Cc3ccc(CSC(F)F)o3)CCO2)cn1 (stereo not drawn) | 15 pixels |
| Cc1nnc(NC(=O)N2CC(C)OC(c3ccsc3)C2)s1 (stereo not drawn) | 20 pixels |
| CC1(C)COCCN1C(=O)c1cnc(-c2cccs2)s1 | 45 pixels |
| CC1CN(C(=O)Cn2nc(-c3cccs3)oc2=O)CCO1 (stereo not drawn) | 0 pixels |
| O=S(=O)(c1cccc(-c2nnc(SCc3ccccc3)o2)c1)N1CCOCC1 | 43 pixels |
| Cc1cnc(CN2CCOC(c3nc(C(C)C)n[nH]3)C2)o1 (stereo not drawn) | 7 pixels |

| Structure (SMILES) | GUS (SPX1) stained area normalized to the number of seeds (pixels) |
| --- | --- |
| CS(=O)(=O)CC1(CN2CCOC(c3ccc(F)cc3)C2)CC1 (stereo not drawn) | 0 pixels |
| CN1CCOC(C(=O)N2CCN(CC3CC3)c3ccccc32)C1 (stereo not drawn) | 64 pixels |
| CCC1CN(C(=O)CCc2nc(-c3cccs3)no2)CCO1 (stereo not drawn) | 23 pixels |
| C=CCn1c(SCc2cccc(S(=O)(=O)N3CCOCC3)c2)nc2ccccc21 | 1 pixels |
| CCN1CCOC(CNCc2ccc(-n3cncn3)cc2)C1 (stereo not drawn) | 301 pixels |
| CCc1cc2c(=O)n(CC(=O)N3CCOC(C)C3)cnc2s1 (stereo not drawn) | 0 pixels |
| c1ccc2sc(SN3CCOCC3)nc2c1 | 1 pixels |
| CC(NC(=O)N1CCOC(CO)C1)c1ccc(Br)cc1 (stereo not drawn) | 129 pixels |
| O=C(NCC(c1ccc(F)cc1)N1CCOCC1)C12CC3CC(CC(C3)C1)C2 (stereo not drawn) | 1 pixels |
| COC(=O)C1CN(Cc2sccc2Br)C[C@@H](C)O1 (stereo partly drawn) | 13 pixels |
| CC1(C)CN(c2snc(Cl)c2C#N)CCO1 | 0 pixels |
| Cc1nn(C)c(C)c1C1CCCN1CC(O)CN1CCOCC1 (stereo not drawn) | 37 pixels |
| Cc1ccc(CS(=O)(=O)c2nnc(N3CCOCC3)n2C)cc1 | 4 pixels |
| CC1CN(C(=O)CCc2nc(-c3ccsc3)no2)C(C)CO1 (stereo not drawn) | 1 pixels |
| CC1COCCN1Cn1nc(Br)nc1Br (stereo not drawn) | 47 pixels |
| Fc1ccc(-c2nnc(SCc3ccc4ccccc4n3)n2CCN2CCOCC2)cc1 | 22 pixels |
| CC1(C)C(NC(=O)Nc2cc(Cl)ccc2N2CCOCC2)C2CCOC21 (stereo not drawn) | 28 pixels |
| O=C1NC(c2cc3ccccc3nc2N2CCOCC2)Nc2ccccc21 (stereo not drawn) | 14 pixels |
| Cc1cccn2c(=O)cc(CN3CCOC(c4ccc(F)cc4)C3)nc12 (stereo not drawn) | 19 pixels |
| O=S(=O)(c1ccc(OCCN(C2CC2)C2CCCc3ccccc32)cc1)N1CCOCC1 (stereo not drawn) | 3 pixels |
| O=C(COn1nnc2ccc(Cl)cc21)Nc1cc(S(=O)(=O)N2CCOCC2)ccc1Cl | 7 pixels |
| COCCn1c(SCC(=O)N2CCOCC2)nnc1-c1ccncc1 | 9 pixels |
| COc1cccc(-c2nnn(-c3nc(CN4CCOCC4)nc4sc5c(c34)CCCC5)n2)c1 | 20 pixels |
| C=CCCN1CC(C(=O)OC)O[C@H](C)C1 (stereo partly drawn) | 5 pixels |
| CN(Cc1ccccc1N1CCOCC1)C(=O)C12CC3CC(CC(C3)C1)C2 | 3 pixels |
